Source: ChEMBL document CHEMBL5376020, “Synthesis and evaluation of WK-X-34 derivatives as P-glycoprotein (P-gp/ABCB1) inhibitors for reversing multidrug resistance” (RSC Med Chem, 2024)
Activity calls are given as the source filed them. No cut-off for these calls is given here.

How the values were obtained:
SW620/AD300 [1] = assay: Reversal fold, ratio of Doxorubicin IC50 to test compound IC50 for reversal of doxorubicin-induced multi-drug resistance in human SW620/AD300 cells measured after 48 hrs by CCK-8 method; assay type: functional
SW620/AD300 [2] = assay: Reversal of doxorubicin-induced multidrug resistance in human SW620/AD300 cells measured after 48 hrs by CCK-8 method; assay type: functional, cell-based; details: SW620/AD300, 48 h
[3] = Octanol/water partition coefficient, log P of the compound; assay type: physicochemical
SW-620 [4] = assay: Cytotoxicity against human SW620 cells assessed as cell mortality rate at 5 uM measured after 48 hrs by CCK-8 method relative to control; assay type: functional
SW620/AD300 [5] = assay: Cytotoxicity against human overexpressing P-gp SW620/AD300 cells assessed as cell mortality rate at 5 uM measured after 48 hrs by CCK-8 method relative to control; assay type: functional
SW-620 [6] = assay: Reversal fold, ratio of Doxorubicin IC50 to test compound IC50 for reversal of doxorubicin-induced multi-drug resistance in human SW620 cells measured after 48 hrs by CCK-8 method; assay type: functional
SW-620 [7] = assay: Reversal of doxorubicin-induced multidrug resistance in human SW620 cells measured after 48 hrs by CCK-8 method; assay type: functional, cell-based; details: SW-620, 48 h
SW620/AD300 [8] = assay: Induction of doxorubicin induced apoptosis in human SW620/AD300 cells assessed as early apoptotic cells at 5 uM incubated for 48 hrs in presence of doxorubicin by annexin V-FITC and PI staining based flow cytometry analysis (reference value: 4.55%); assay type: functional
SW620/AD300 [9] = assay: Downregulation of P-gp expression level in human SW620/AD300 cells at 2 to 5 uM measured after 24 hrs by qPCR analysis; assay type: functional, cell-based; details: dose 2-5 µM
SW620/AD300 [10] = assay: Induction of doxorubicin induced apoptosis in human SW620/AD300 cells assessed as early apoptotic cells at 2.5 uM incubated for 48 hrs in presence of doxorubicin by annexin V-FITC and PI staining based flow cytometry analysis (reference value: 4.55%); assay type: functional
SW620/AD300 [11] = assay: Induction of doxorubicin induced apoptosis in human SW620/AD300 cells assessed as necrotic cells at 2.5 uM incubated for 48 hrs in presence of doxorubicin by annexin V-FITC and PI staining based flow cytometry analysis (reference value: 0.59%); assay type: functional
SW620/AD300 [12] = assay: Downregulation of P-gp expression level in human SW620/AD300 cells at 5 to 10 uM measured after 24 hrs by Western blot analysis; assay type: functional, cell-based; details: dose 5-10 µM
SW620/AD300 [13] = assay: Induction of doxorubicin induced apoptosis in human SW620/AD300 cells assessed as late apoptotic cells at 5 uM incubated for 48 hrs in presence of doxorubicin by annexin V-FITC and PI staining based flow cytometry analysis (reference value: 2.07%); assay type: functional
SW620/AD300 [14] = assay: Induction of doxorubicin induced apoptosis in human SW620/AD300 cells assessed as viable cells at 5 uM incubated for 48 hrs in presence of doxorubicin by annexin V-FITC and PI staining based flow cytometry analysis (reference value: 92.8%); assay type: functional; details: read-out: Activity
SW620/AD300 [15] = assay: Induction of doxorubicin induced apoptosis in human SW620/AD300 cells assessed as necrotic cells at 5 uM incubated for 48 hrs in presence of doxorubicin by annexin V-FITC and PI staining based flow cytometry analysis (reference value: 0.59%); assay type: functional
SW620/AD300 [16] = assay: Downregulation of P-gp expression level in human SW620/AD300 cells at upto 50 uM measured after 24 hrs by Western blot analysis; assay type: functional, cell-based
SW620/AD300 [17] = assay: Induction of doxorubicin induced apoptosis in human SW620/AD300 cells assessed as viable cells at 2.5 uM incubated for 48 hrs in presence of doxorubicin by annexin V-FITC and PI staining based flow cytometry analysis (reference value: 92.8%); assay type: functional; details: read-out: Activity
SW620/AD300 [18] = assay: Induction of doxorubicin induced apoptosis in human SW620/AD300 cells assessed as late apoptotic cells at 2.5 uM incubated for 48 hrs in presence of doxorubicin by annexin V-FITC and PI staining based flow cytometry analysis (reference value: 2.07%); assay type: functional
[19] = target: ATP-dependent translocase ABCB1 (Homo sapiens, UniProt P08183); assay: Inhibition of P-gp efflux in human SW620/AD300 cells assessed as increase in accumulation of Rh123 by measuring fluorescence intensity at 5.0 uM incubated for 4 hrs followed by Rh123 addition measured after 30 mins by flow cytometric analysis; assay type: cell-based; details: sw620/ad300, 4.5 h
Chain of ATP-dependent translocase ABCB1 (P08183 whole entry): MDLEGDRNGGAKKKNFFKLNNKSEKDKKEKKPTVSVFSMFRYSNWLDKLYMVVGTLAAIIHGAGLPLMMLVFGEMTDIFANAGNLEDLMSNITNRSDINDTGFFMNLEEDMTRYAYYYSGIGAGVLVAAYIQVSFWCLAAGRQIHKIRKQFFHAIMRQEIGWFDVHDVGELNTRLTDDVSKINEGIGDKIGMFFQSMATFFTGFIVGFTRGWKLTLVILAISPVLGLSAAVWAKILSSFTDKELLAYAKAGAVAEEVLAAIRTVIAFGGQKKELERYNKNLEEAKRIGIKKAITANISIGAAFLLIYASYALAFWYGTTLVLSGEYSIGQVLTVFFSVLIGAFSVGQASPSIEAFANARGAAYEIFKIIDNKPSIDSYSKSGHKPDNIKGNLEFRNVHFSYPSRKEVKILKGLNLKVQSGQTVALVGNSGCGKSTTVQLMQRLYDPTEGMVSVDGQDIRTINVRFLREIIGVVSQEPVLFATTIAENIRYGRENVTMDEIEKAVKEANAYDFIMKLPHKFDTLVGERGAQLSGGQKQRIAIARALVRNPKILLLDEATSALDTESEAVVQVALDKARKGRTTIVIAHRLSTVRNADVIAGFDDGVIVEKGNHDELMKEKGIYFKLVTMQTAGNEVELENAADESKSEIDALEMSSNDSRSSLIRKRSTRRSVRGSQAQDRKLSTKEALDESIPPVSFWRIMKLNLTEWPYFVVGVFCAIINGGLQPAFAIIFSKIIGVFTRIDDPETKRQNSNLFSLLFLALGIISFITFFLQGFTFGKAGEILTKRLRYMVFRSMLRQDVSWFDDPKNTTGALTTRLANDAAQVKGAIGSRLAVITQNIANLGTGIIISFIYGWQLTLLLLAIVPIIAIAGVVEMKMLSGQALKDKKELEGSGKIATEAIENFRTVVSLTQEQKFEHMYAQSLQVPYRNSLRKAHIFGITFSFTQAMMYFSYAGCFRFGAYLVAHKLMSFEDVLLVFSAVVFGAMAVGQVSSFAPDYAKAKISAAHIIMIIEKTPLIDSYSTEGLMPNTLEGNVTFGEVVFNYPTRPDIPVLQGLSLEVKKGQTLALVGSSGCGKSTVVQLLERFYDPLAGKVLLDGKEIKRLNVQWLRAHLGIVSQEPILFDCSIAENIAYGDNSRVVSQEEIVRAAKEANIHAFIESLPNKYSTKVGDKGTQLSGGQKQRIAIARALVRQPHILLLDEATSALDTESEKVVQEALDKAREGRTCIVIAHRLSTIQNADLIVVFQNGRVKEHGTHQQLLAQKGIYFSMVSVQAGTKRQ

Row | SMILES | Ratio IC50 (SW620/AD300 [1]) | IC50 (SW620/AD300 [2]) | logP [3] | mortality at 5 µM (SW-620 [4]) | mortality at 5 µM (SW620/AD300 [5]) | Ratio IC50 (SW-620 [6]) | IC50 (SW-620 [7]) | Activity (SW620/AD300 [8]) | Activity (SW620/AD300 [9]) | Activity (SW620/AD300 [10]) | Activity (SW620/AD300 [11]) | Activity (SW620/AD300 [12]) | Activity (SW620/AD300 [13]) | viability at 5 µM (SW620/AD300 [14]) | Activity (SW620/AD300 [15]) | Activity (SW620/AD300 [16]) | viability at 2.5 µM (SW620/AD300 [17]) | Activity (SW620/AD300 [18]) | inhibition (INH) [19]
1 | COc1cc2c(cc1OC)CN(CCc1ccc(NC(=O)c3ccccc3NC(=O)c3ccc(C(=O)NCCNC(=O)CC45CC6CC(CC(C6)C4)C5)cc3)cc1)CC2 | 13 | 807 nM | 7.9 | < 6% | < 6% | 1.8 | 138 nM | – | – | – | – | – | – | – | – | – | – | – | –
2 | COc1ccc(CCN(C)CCCC(C#N)(c2ccc(OC)c(OC)c2)C(C)C)cc1OC (stereo not given) [VERAPAMIL] | – | – | – | – | – | – | 142 nM | – | – | – | – | – | – | – | – | – | – | – | –
3 | COc1cc2c(cc1OC)CN(CCc1ccc(NC(=O)c3ccccc3NC(=O)c3ccc(NC(=O)CC45CC6CC(CC(C6)C4)C5)cc3)cc1)CC2 | 21.1 | 498 nM | 8.48 | < 6% | < 6% | 0.5 | 489 nM | – | – | – | – | – | – | – | – | – | – | – | –
4 | COc1cc2c(cc1OC)CN(CCc1ccc(NC(=O)c3ccccc3NC(=O)c3ccc(C(=O)N4CCN(C(=O)CC56CC7CC(CC(C7)C5)C6)CC4)cc3)cc1)CC2 | 78.6 | 134 nM | 8.04 | < 2% | < 2% | 1.9 | 137 nM | 52.1% | inactive | 50.8% | 0.22% | inactive | 5.15% | 42.1% | 1.17% | inactive | 47.8% | 1.16% | Active
5 | COc1cc2c(cc1OC)CN(CCc1ccc(NC(=O)c3ccccc3NC(=O)c3ccccc3N)cc1)CC2 | 14.6 | 719 nM | 5.78 | – | – | 1.1 | 229 nM | – | – | – | – | – | – | – | – | – | – | – | –
6 | COc1cc2c(cc1OC)CN(CCc1ccc(NC(=O)c3ccccc3NC(=O)c3ccc(C(=O)O)cc3)cc1)CC2 | 1.4 | 7540 nM | 3.16 | – | – | 0.7 | 376 nM | – | – | – | – | – | – | – | – | – | – | – | –
7 | COc1cc2c(cc1OC)CN(CCc1ccc(NC(=O)c3ccccc3NC(=O)CCNC(=O)CC34CC5CC(CC(C5)C3)C4)cc1)CC2 | 27.7 | 379 nM | 6.89 | < 6% | < 6% | 0.7 | 342 nM | – | – | – | – | – | – | – | – | – | – | – | –
8 | COC(=O)c1ccc(C(=O)Nc2ccccc2C(=O)Nc2ccc(CCN3CCc4cc(OC)c(OC)cc4C3)cc2)cc1 | 10.4 | 1010 nM | 5.77 | – | – | 1.9 | 136 nM | – | – | – | – | – | – | – | – | – | – | – | –
9 | COc1cccc2c1C(=O)c1c(O)c3c(c(O)c1C2=O)C[C@@](O)(C(=O)CO)C[C@@H]3O[C@H]1C[C@H](N)[C@H](O)[C@H](C)O1 [DOXORUBICIN] | 1 | 10500 nM | – | – | – | 1 | 256 nM | – | – | – | – | – | – | – | – | – | – | – | –
10 | COc1cc2c(cc1OC)CN(CCc1ccc(NC(=O)c3ccccc3NC(=O)c3ccc(N)cc3)cc1)CC2 | 15.9 | 663 nM | 5.23 | – | – | 1.5 | 173 nM | – | – | – | – | – | – | – | – | – | – | – | –
11 | COc1cc2c(cc1OC)CN(CCc1ccc(NC(=O)c3ccccc3NC(=O)CC34CC5CC(CC(C5)C3)C4)cc1)CC2 | 51.4 | 205 nM | 7.65 | < 2% | < 2% | 0.9 | 284 nM | 24.7% | inactive | 17.7% | 0.29% | inactive | 3.93% | 70.2% | 1.13% | inactive | 78.9% | 3.15% | Active
12 | COc1ccc(C(=O)Nc2ccccc2C(=O)Nc2ccc(CCN3CCc4cc(OC)c(OC)cc4C3)cc2)cc1OC | 45.9 | 223 nM | 5.85 | 9% | 9% | 4 | 63 nM | 38.5% | – | – | – | – | 3.62% | 57.3% | 0.56% | – | – | – | Active
13 | COc1cc2c(cc1OC)CN(CCc1ccc(NC(=O)c3ccccc3NC(=O)C34CC5CC(CC(C5)C3)C4)cc1)CC2 | 15.7 | 671 nM | 6.83 | < 2% | < 2% | 1.8 | 144 nM | 36.1% | inactive | 22.7% | 0.08% | inactive | 4.45% | 59.2% | 0.29% | Active | 76.3% | 0.96% | Active
